Laboratory results reported in patent publication US20080107679A1, “Skin care compositions including hexapeptide complexes and methods of their manufacture” (priority 2003, published 2008).

Columns and labels:
fine lines and wrinkles = experiment: Clinical evaluations of the hexapeptide complex: fine lines and wrinkles; assay type: in vivo
Excerpt: (§1) The combination of ingredients of the skin care compositions of the present invention are believed to provide synergistic benefits which are otherwise not available with any one of the components used by itself. Clinical evaluations based on the use of the hexapeptide complex itself evidenced a reduction in fine lines and wrinkles, including laugh lines, frown lines, and smile lines, by approximately 13% after 2 weeks and approximately 33% in 4 weeks of use. It was further observed that 100% of participants experienced a reduction in under-eye fine lines and wrinkles on the average of approximately 16% after 4 weeks and approximately 52% after 8 weeks of use. Additionally, an increase in moisture content by 37% after 15 minutes of use was observed.

skin = experiment: Clinical evaluations of the hexapeptide complex: moisture content; assay type: in vivo; settings: after 15 minutes of use
Excerpt: as §1

Substance: acetyl hexapeptide-3 [hexapeptide complex]
- reduction in fine lines and wrinkles, including laugh lines, frown lines, and smile lines (fine lines and wrinkles; after 2 weeks): approximately 13%
- average reduction in under-eye fine lines and wrinkles (fine lines and wrinkles; after 4 weeks): approximately 16%
- average reduction in under-eye fine lines and wrinkles (fine lines and wrinkles; after 8 weeks of use): approximately 52%
- reduction in fine lines and wrinkles, including laugh lines, frown lines, and smile lines (fine lines and wrinkles; in 4 weeks of use): approximately 33%
- participants who experienced a reduction in under-eye fine lines and wrinkles (fine lines and wrinkles; in vivo): 100%
- increase in moisture content (skin): 37%
